Read-outs that look alike come from different tables or passages of the source.
Legend:
BTK = BTK (Homo sapiens (Human), UniProt Q06187); assay: In vitro BTK kinase assay: Btk-PolyGAT-LS assay; format: biochemical; settings: ATP 10 μM, polyGAT 100 nM, BTK 0.25 nM, 30 minutes
[1] = test system: CD69 expression on CD19+ B cells in human whole blood; assay: In vitro whole blood CD69 assay; format: cell-based; settings: B-cell
[2] = Whole Blood CD69 inhibition, human heparinized blood, anti-human IgD stimulation, CD19+ B cells expressing CD69, read-out: IC50

Sequence of BTK (Q06187 whole entry): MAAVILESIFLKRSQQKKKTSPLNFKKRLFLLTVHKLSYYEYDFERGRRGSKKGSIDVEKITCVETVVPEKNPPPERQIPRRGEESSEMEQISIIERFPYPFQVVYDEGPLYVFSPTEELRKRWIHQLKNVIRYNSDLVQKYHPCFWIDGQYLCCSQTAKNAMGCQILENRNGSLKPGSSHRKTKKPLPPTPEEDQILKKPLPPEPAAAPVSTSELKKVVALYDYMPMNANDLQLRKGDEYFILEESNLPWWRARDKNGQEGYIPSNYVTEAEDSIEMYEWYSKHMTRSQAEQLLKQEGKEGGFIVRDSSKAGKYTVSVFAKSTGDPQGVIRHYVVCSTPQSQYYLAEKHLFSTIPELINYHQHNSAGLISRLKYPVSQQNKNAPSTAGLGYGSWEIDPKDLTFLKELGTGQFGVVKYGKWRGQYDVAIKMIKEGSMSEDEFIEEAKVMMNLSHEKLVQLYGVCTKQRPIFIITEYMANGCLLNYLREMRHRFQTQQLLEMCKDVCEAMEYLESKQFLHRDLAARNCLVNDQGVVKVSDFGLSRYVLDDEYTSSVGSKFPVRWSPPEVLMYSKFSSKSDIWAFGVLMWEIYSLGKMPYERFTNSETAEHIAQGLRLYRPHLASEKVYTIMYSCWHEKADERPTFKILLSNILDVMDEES

SMILES	IC50 (BTK) [nM]	IC50 [1, 2] [nM]	IC50 ([1]; Homo sapiens) [nM]
C=CC(=O)N1CC[C@@H](Oc2cnccc2-c2ccc(CNC(=O)c3cn(C(C)(C)C)nn3)c(C)c2)C1 (single isomer, unassigned) [Example 35]	> 10	> 1000	–
C=CC(=O)N(C)CCOc1c(N)ncnc1-c1ccc(CN2Cc3cc(C4CC4)sc3C2=O)c(C)c1 [Example 11, N-(2-((4-amino-6-(4-((2-cyclopropyl-6-oxo-4,6-dihydro-5H-thieno[2,3-c]pyrrol-5-yl)methyl)-3-methylphenyl)pyrimidin-5-yl)oxy)ethyl)-N-methylacrylamide]	< 1	100 to 1000	–
C=CC(=O)N(C)CC(=O)Nc1cncnc1-c1ccc(CNC(=O)c2cn(C(C)(C)C)nn2)c(C)c1 [Example 29, 1-(tert-butyl)-N-(2-methyl-4-(5-(2-(N-methylacrylamido)acetamido)pyrimidin-4-yl)benzyl)-1H-1,2,3-triazole-4-carboxamide]	< 1	–	–
C=CC(=O)N1CCCC1COc1cnccc1-c1ccc(CNC(=O)c2cn(C(C)(C)C)nn2)c(C)c1F (stereo not shown) [Example 49, N-(4-(3-((1-acryloylpyrrolidin-2-yl)methoxy)pyridin-4-yl)-3-fluoro-2-methylbenzyl)-1-(tert-butyl)-1H-1,2,3-triazole-4-carboxamide]	1 to 10	> 1000	–
C#CC(=O)N1CCC(Oc2cnccc2-c2ccc(CNC(=O)c3cn(C(C)(C)C)nn3)c(C)c2)C1 (stereo not shown) [Example 43, 1-(tert-butyl)-N-(2-methyl-4-(3-((1-propioloylpyrrolidin-3-yl)oxy)pyridin-4-yl)benzyl)-1H-1,2,3-triazole-4-carboxamide]	1 to 10	> 1000	–
C=CC(=O)N(C)CCOc1cnccc1-c1ccc(CNC(=O)c2noc(C(C)(C)C)n2)cc1F [Example 13, 5-(tert-butyl)-N-(3-fluoro-4-(3-(2-(N-methylacrylamido)ethoxy)pyridin-4-yl)benzyl)-1,2,4-oxadiazole-3-carboxamide]	< 1	–	–
C=CC(=O)N(C)CCOc1cnccc1-c1ccc(CNC(=O)c2noc(C(C)(C)C)n2)c(C)c1F [Example 5, 5-(tert-butyl)-N-(3-fluoro-2-methyl-4-(3-(2-(N-methylacrylamido)ethoxy)pyridin-4-yl)benzyl)-1,2,4-oxadiazole-3-carboxamide]	< 1	< 100	–
C=CC(=O)N(C)CCOc1c(N)ncnc1-c1ccc(CN2CCN(CC(C)(C)C)CC2=O)c(C)c1 [Example 9, N-(2-((4-amino-6-(3-methyl-4-((4-neopentyl-2-oxopiperazin-1-yl)methyl)phenyl)pyrimidin-5-yl)oxy)ethyl)-N-methylacrylamide]	< 1	< 100	–
C=CC(=O)N1CCC(Oc2cnccc2-c2ccc(CNC(=O)c3cn(C(C)(C)C)nn3)c(C)c2)C1 (stereo not shown) [Example 34, N-(4-(3-((1-acryloylpyrrolidin-3-yl)oxy)pyridin-4-yl)-2-methylbenzyl)-1-(tert-butyl)-1H-1,2,3-triazole-4-carboxamide]	> 10	–	–
C=CC(=O)N1CC[C@H](Oc2cnccc2-c2ccc(CNC(=O)c3cn(C(C)(C)C)nn3)c(C)c2)C1 (single isomer, unassigned) [Example 36]	1 to 10	> 1000	–
C=CC(=O)N1CCCC[C@@H]1C(=O)Nc1cnccc1-c1ccc(CNC(=O)c2noc(C(C)(C)C)n2)c(C)c1 [Example 31, (R)-N-(4-(3-(1-acryloylpiperidine-2-carboxamido)pyridin-4-yl)-2-methylbenzyl)-5-(tert-butyl)-1,2,4-oxadiazole-3-carboxamide]	< 1	< 100	–
C=CC(=O)NCC(=O)Nc1cncnc1-c1ccc(CNC(=O)c2cn(C(C)(C)C)nn2)c(C)c1 [Example 30, N-(4-(5-(2-acrylamidoacetamido)pyrimidin-4-yl)-2-methylbenzyl)-1-(tert-butyl)-1H-1,2,3-triazole-4-carboxamide]	1 to 10	–	–
C=CC(=O)N1CCCC(Oc2cnccc2-c2ccc(CNC(=O)c3cn(C(C)(C)C)nn3)c(C)c2)C1 (stereo not shown) [Example 38, N-(4-(3-((1-acryloylpiperidin-3-yl)oxy)pyridin-4-yl)-2-methylbenzyl)-1-(tert-butyl)-1H-1,2,3-triazole-4-carboxamide]	> 10	> 1000	–
C=CC(=O)N(C)CCOc1c(N)ncnc1-c1ccc(CNC(=O)c2cn(C(C)(C)C)nn2)c(C)c1 [Example 8, N-(4-(6-amino-5-(2-(N-methylacrylamido)ethoxy)pyrimidin-4-yl)-2-methylbenzyl)-1-(tert-butyl)-1H-1,2,3-triazole-4-carboxamide]	< 1	< 100	–
C#CC(=O)N1CCCC1COc1cnccc1-c1ccc(CNC(=O)c2cn(C(C)(C)C)nn2)c(C)c1F (stereo not shown) [Example 48, 1-(tert-butyl)-N-(3-fluoro-2-methyl-4-(3-((1-propioloylpyrrolidin-2-yl)methoxy)pyridin-4-yl)benzyl)-1H-1,2,3-triazole-4-carboxamide]	1 to 10	–	–
C=CC(=O)N(C)CCOc1cnccc1-c1ccc(CNC(=O)c2cc(C(C)(C)C)on2)c(C)c1 [Example 16, 5-(tert-butyl)-N-(2-methyl-4-(3-(2-(N-methylacrylamido)ethoxy)pyridin-4-yl)benzyl)isoxazole-3-carboxamide]	< 1	–	–
C=CC(=O)N1CCC(Oc2cnccc2-c2ccc(CNC(=O)c3cn(C(C)(C)C)nn3)c(C)c2)CC1 [Example 37, N-(4-(3-((1-acryloylpiperidin-4-yl)oxy)pyridin-4-yl)-2-methylbenzyl)-1-(tert-butyl)-1H-1,2,3-triazole-4-carboxamide]	< 1	> 1000	–
Cc1cc(-c2ccncc2OC2CN(C(=O)/C=C/CN(C)C)C2)ccc1CNC(=O)c1cn(C(C)(C)C)nn1 [Example 40, (E)-1-(tert-butyl)-N-(4-(3-((1-(4-(dimethylamino)but-2-enoyl)azetidin-3-yl)oxy)pyridin-4-yl)-2-methylbenzyl)-1H-1,2,3-triazole-4-carboxamide]	> 10	> 1000	–
C=CC(=O)N1CCCC(Oc2cncnc2-c2ccc(CNC(=O)c3cn(C(C)(C)C)nn3)c(C)c2)C1 (stereo not shown) [Example 39, N-(4-(5-((1-acryloylpiperidin-3-yl)oxy)pyrimidin-4-yl)-2-methylbenzyl)-1-(tert-butyl)-1H-1,2,3-triazole-4-carboxamide]	> 10	> 1000	–
C=CC(=O)N1CC(Oc2cnccc2-c2ccc(CNC(=O)c3cn(C(C)(C)C)nn3)c(C)c2)C1 [Example 33, N-(4-(3-((1-acryloylazetidin-3-yl)oxy)pyridin-4-yl)-2-methylbenzyl)-1-(tert-butyl)-1H-1,2,3-triazole-4-carboxamide]	1 to 10	–	> 1000
C=CC(=O)N(C)CCOc1c(N)ncnc1-c1ccc(CNC(=O)c2nc(C(C)(C)C)no2)c(C)c1 [Example 7, N-(4-(6-amino-5-(2-(N-methylacrylamido)ethoxy)pyrimidin-4-yl)-2-methylbenzyl)-3-(tert-butyl)-1,2,4-oxadiazole-5-carboxamide]	< 1	< 100	–
Cc1cc(-c2ccncc2OC2CCN(C(=O)/C=C/CN(C)C)C2)ccc1CNC(=O)c1cn(C(C)(C)C)nn1 (stereo not shown) [Example 41, (E)-1-(tert-butyl)-N-(4-(3-((1-(4-(dimethylamino)but-2-enoyl)pyrrolidin-3-yl)oxy)pyridin-4-yl)-2-methylbenzyl)-1H-1,2,3-triazole-4-carboxamide]	> 10	> 1000	–
C=CS(=O)(=O)N1CCCC1COc1cnccc1-c1ccc(CNC(=O)c2cn(C(C)(C)C)nn2)c(C)c1F (stereo not shown) [Example 50, 1-(tert-butyl)-N-(3-fluoro-2-methyl-4-(3-((1-(vinylsulfonyl)pyrrolidin-2-yl)methoxy)pyridin-4-yl)benzyl)-1H-1,2,3-triazole-4-carboxamide]	< 1	> 1000	–
C#CC(=O)N1CCC(Oc2cnccc2-c2ccc(CNC(=O)c3cn(C(C)(C)C)nn3)c(C)c2)CC1 [Example 44, 1-(tert-butyl)-N-(2-methyl-4-(3-((1-propioloylpiperidin-4-yl)oxy)pyridin-4-yl)benzyl)-1H-1,2,3-triazole-4-carboxamide]	< 1	> 1000	–
C=CC(=O)N(C)CCOc1cnccc1-c1ccc(CNC(=O)c2noc(C(C)(C)C)n2)c(C)c1 [Example 4, 5-(tert-butyl)-N-(2-methyl-4-(3-(2-(N-methylacrylamido)ethoxy)pyridin-4-yl)benzyl)-1,2,4-oxadiazole-3-carboxamide]	< 1	< 100	–
C=CC(=O)N(C)CCOc1cnccc1-c1ccc(CNC(=O)c2cc(C(C)(C)C)on2)c(F)c1F [Example 17, 5-(tert-butyl)-N-(2,3-difluoro-4-(3-(2-(N-methylacrylamido)ethoxy)pyridin-4-yl)benzyl)isoxazole-3-carboxamide]	< 1	–	–
C=CC(=O)N(C)CCOc1cnccc1-c1ccc(CNC(=O)c2ccn(C(C)(C)C)n2)c(Cl)c1F [Example 15, 1-(tert-butyl)-N-(2-chloro-3-fluoro-4-(3-(2-(N-methylacrylamido)ethoxy)pyridin-4-yl)benzyl)-1H-pyrazole-3-carboxamide]	1 to 10	–	–
C=CC(=O)N1CCC(COc2cnccc2-c2ccc(CNC(=O)c3cn(C(C)(C)C)nn3)c(C)c2F)C1 (stereo not shown) [Example 51, N-(4-(3-((1-acryloylpyrrolidin-3-yl)methoxy)pyridin-4-yl)-3-fluoro-2-methylbenzyl)-1-(tert-butyl)-1H-1,2,3-triazole-4-carboxamide]	< 1	–	–
C=CC(=O)N(C)CCOc1cnccc1-c1ccc(CNC(=O)c2noc(C(C)(C)C)n2)c(C(F)(F)F)c1 [Example 14, 5-(tert-butyl)-N-(4-(3-(2-(N-methylacrylamido)ethoxy)pyridin-4-yl)-2-(trifluoromethyl)benzyl)-1,2,4-oxadiazole-3-carboxamide]	< 1	–	–
C=CC(=O)N1CC[C@H]1COc1cnccc1-c1ccc(CNC(=O)c2ccc(C(F)(F)F)nc2)c(C)c1 [Example 52, (S)-N-(4-(3-((1-acryloylazetidin-2-yl)methoxy)pyridin-4-yl)-2-methylbenzyl)-6-(trifluoromethyl)nicotinamide]	> 10	–	–

From US12570631B2, “Substituted N-(4-(pyrimidin and pyridin-4-yl)benzylcarboxamides and its use for treating disorders responsive to inhibition of Btk” (BIOGEN MA INC., priority 2019, dated 2026)
